ChEMBL document CHEMBL1201862, “PubChem BioAssay data set” (2004)
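Cells were grown in 96-well plates and exposed to each compound for 48 hours at five concentrations; endpoints were interpolated linearly between bracketing concentrations, or set to the highest concentration if not reached. Here, GI50 denotes the concentration required for 50% inhibition of growth.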 Calls of active or inactive are those of the source. No stated cut-off is given here; in the data, active = GI50 up to about 1.1 µM and inactive = higher.

What was measured:
Assay in all cases: NCI tumour cell line growth inhibition, 48 h
[1] = tested on: A549
[2] = tested on: CAKI-1
[3] = tested on: EKVX
[4] = tested on: HCT-116
[5] = tested on: IGROV-1
[6] = tested on: Malme-3M
[7] = tested on: NCI-H226
[8] = tested on: NCI-H23
[9] = tested on: NCI-H460
[10] = tested on: OVCAR-4
[11] = tested on: RPMI-8226
[12] = tested on: SF-268
[13] = tested on: SK-MEL-28
[14] = tested on: SK-OV-3
[15] = tested on: SN12C
[16] = tested on: SR
[17] = tested on: Hs-578T
[18] = tested on: MDA-MB-231
[19] = tested on: PC-3

SMILES | GI50 [1] | GI50 [2] | GI50 [3] | GI50 [4] | GI50 [5] | GI50 [6] | GI50 [7] | GI50 [8] | GI50 [9] | GI50 [10] | GI50 [11] | GI50 [12] | GI50 [13] | GI50 [14] | GI50 [15] | GI50 [16] | GI50 [17] | GI50 [18] | GI50 [19]
NC1=C(Br)C(=O)c2ncccc2C1=O | 0.855 µM (active) | 1.51 µM (inactive) | 1.61 µM (inactive) | 0.22 µM (active) | 1.11 µM (active) | 0.466 µM (active) | 1.69 µM (inactive) | 0.156 µM (active) | 0.393 µM (active) | 1.37 µM (inactive) | 0.942 µM (active) | 0.42 µM (active) | 0.34 µM (active) | 1.81 µM (inactive) | 0.815 µM (active) | 0.173 µM (active) | – | – | –
C[N+](C)(C)Cc1c(CC#N)[nH]c2ccccc12 | > 100 µM (inactive) | 96.8 µM (inactive) | > 100 µM (inactive) | > 100 µM (inactive) | > 100 µM (inactive) | > 100 µM (inactive) | > 100 µM (inactive) | > 100 µM (inactive) | > 100 µM (inactive) | 1.2 µM (inactive) | 31.6 µM (inactive) | > 100 µM (inactive) | > 100 µM (inactive) | – | > 100 µM (inactive) | 44.6 µM (inactive) | – | – | –
Cc1c(C(=O)O)n2c(S)nnc2c2ccccc12 | > 100 µM (inactive) | > 100 µM (inactive) | > 100 µM (inactive) | > 100 µM (inactive) | > 100 µM (inactive) | – | > 100 µM (inactive) | > 100 µM (inactive) | > 100 µM (inactive) | > 100 µM (inactive) | > 100 µM (inactive) | > 100 µM (inactive) | > 100 µM (inactive) | > 100 µM (inactive) | > 100 µM (inactive) | > 100 µM (inactive) | > 100 µM (inactive) | > 100 µM (inactive) | > 100 µM (inactive)
CCOC(=O)C(C#N)C1=CC(=O)C(=O)c2ccc(O)cc21 (centres undefined) | > 100 µM (inactive) | > 100 µM (inactive) | > 100 µM (inactive) | 55.1 µM (inactive) | 78 µM (inactive) | 47 µM (inactive) | 41.2 µM (inactive) | 19.3 µM (inactive) | > 100 µM (inactive) | 58.9 µM (inactive) | > 100 µM (inactive) | > 100 µM (inactive) | > 100 µM (inactive) | > 100 µM (inactive) | > 100 µM (inactive) | > 100 µM (inactive) | 17.2 µM (inactive) | 32.1 µM (inactive) | > 100 µM (inactive)
Cn1c(-c2c(C3=CC(=O)N(c4ccccc4)C3=O)c3ccccc3n2C)cc2ccccc21 | > 100 µM (inactive) | > 100 µM (inactive) | 4.51 µM (inactive) | > 100 µM (inactive) | > 100 µM (inactive) | 7.41 µM (inactive) | > 100 µM (inactive) | > 100 µM (inactive) | > 100 µM (inactive) | > 100 µM (inactive) | 92.7 µM (inactive) | – | > 100 µM (inactive) | 4.38 µM (inactive) | > 100 µM (inactive) | 17.7 µM (inactive) | – | > 100 µM (inactive) | > 100 µM (inactive)
CN(C)CCNC(=O)C1COc2cc(-c3cc(=O)c4ccccc4o3)ccc2O1 (centres undefined) | 16.9 µM (inactive) | 17.1 µM (inactive) | 53.5 µM (inactive) | 15.1 µM (inactive) | 22.2 µM (inactive) | 21.7 µM (inactive) | 28.1 µM (inactive) | 41.1 µM (inactive) | 38.2 µM (inactive) | 17.8 µM (inactive) | 27.9 µM (inactive) | 23.7 µM (inactive) | 19.5 µM (inactive) | 23.1 µM (inactive) | 22.4 µM (inactive) | 15.6 µM (inactive) | – | – | –
COc1ccc2c3c([nH]c2c1[N+](=O)[O-])C(C)N(Cc1ccccc1)CC3 (centres undefined) | 5.05 µM (inactive) | 2.47 µM (inactive) | 40.3 µM (inactive) | 3.08 µM (inactive) | 3.57 µM (inactive) | – | 4.49 µM (inactive) | 7.94 µM (inactive) | 2.94 µM (inactive) | 13.9 µM (inactive) | 2.43 µM (inactive) | 2.02 µM (inactive) | 7.69 µM (inactive) | – | 5.81 µM (inactive) | 4.49 µM (inactive) | – | – | –
COc1ccc(/C(Cl)=C(\C=N/O)c2ccc(OC)c(OC)c2)cc1OC | > 100 µM (inactive) | > 100 µM (inactive) | > 100 µM (inactive) | > 100 µM (inactive) | > 100 µM (inactive) | > 100 µM (inactive) | > 100 µM (inactive) | > 100 µM (inactive) | > 100 µM (inactive) | > 100 µM (inactive) | > 100 µM (inactive) | > 100 µM (inactive) | > 100 µM (inactive) | > 100 µM (inactive) | > 100 µM (inactive) | > 100 µM (inactive) | – | – | –
Nc1nc(SCCNC(=O)CCc2ccc(O)cc2)nc2c1ncn2C1OC(CO)C(O)C1O (centres undefined) | > 203 µM (inactive) | > 203 µM (inactive) | – | > 203 µM (inactive) | > 203 µM (inactive) | > 203 µM (inactive) | > 203 µM (inactive) | > 203 µM (inactive) | > 203 µM (inactive) | > 203 µM (inactive) | > 203 µM (inactive) | > 203 µM (inactive) | > 203 µM (inactive) | > 203 µM (inactive) | > 203 µM (inactive) | > 203 µM (inactive) | – | – | –
CN(C)/N=C1/CCC(C(F)(F)F)(C(F)(F)F)O1 | 37.5 µM (inactive) | 41 µM (inactive) | 36.9 µM (inactive) | 29.7 µM (inactive) | 31.2 µM (inactive) | 23.3 µM (inactive) | 26.3 µM (inactive) | 37.4 µM (inactive) | 41 µM (inactive) | 47.6 µM (inactive) | 31.5 µM (inactive) | 43.5 µM (inactive) | 39.6 µM (inactive) | 38.3 µM (inactive) | 27.8 µM (inactive) | 17.6 µM (inactive) | 39.2 µM (inactive) | 25.4 µM (inactive) | 28.9 µM (inactive)
O=C(c1ccccc1)c1nc2c(Cl)ccc(Cl)c2cc1C(Br)Br | 3.08 µM (inactive) | 1.58 µM (inactive) | – | 0.375 µM (active) | 2.75 µM (inactive) | 2.19 µM (inactive) | 1.97 µM (inactive) | – | – | 1.82 µM (inactive) | 0.284 µM (active) | 1.41 µM (inactive) | 0.215 µM (active) | – | 1.17 µM (inactive) | 1.59 µM (inactive) | – | – | –
Cc1cc2nn(C3CCCO3)nc2cc1C (centres undefined) | > 100 µM (inactive) | > 100 µM (inactive) | > 100 µM (inactive) | > 100 µM (inactive) | > 100 µM (inactive) | > 100 µM (inactive) | > 100 µM (inactive) | > 100 µM (inactive) | > 100 µM (inactive) | > 100 µM (inactive) | – | > 100 µM (inactive) | – | > 100 µM (inactive) | > 100 µM (inactive) | > 100 µM (inactive) | > 100 µM (inactive) | > 100 µM (inactive) | > 100 µM (inactive)
C[C@@]1(O)C2CC3CC1(c1ccccc1)CC(/C3=N/O)/C2=N\O (some centres undefined) | > 100 µM (inactive) | > 100 µM (inactive) | > 100 µM (inactive) | > 100 µM (inactive) | > 100 µM (inactive) | > 100 µM (inactive) | > 100 µM (inactive) | > 100 µM (inactive) | > 100 µM (inactive) | > 100 µM (inactive) | – | > 100 µM (inactive) | > 100 µM (inactive) | > 100 µM (inactive) | > 100 µM (inactive) | > 100 µM (inactive) | – | > 100 µM (inactive) | > 100 µM (inactive)
Cc1ccc(C)c(NC(=O)C(=O)C(C2C(C)CC(=O)C2CC(=O)O)[N+](=O)[O-])c1 (centres undefined) | > 100 µM (inactive) | > 100 µM (inactive) | > 100 µM (inactive) | > 100 µM (inactive) | > 100 µM (inactive) | > 100 µM (inactive) | > 100 µM (inactive) | > 100 µM (inactive) | > 100 µM (inactive) | > 100 µM (inactive) | > 100 µM (inactive) | > 100 µM (inactive) | > 100 µM (inactive) | > 100 µM (inactive) | > 100 µM (inactive) | > 100 µM (inactive) | – | – | –
O=C(/C=C/c1c(O)ccc2ccccc12)c1ccc([N+](=O)[O-])cc1 | > 95.9 µM (inactive) | 37.8 µM (inactive) | 41.9 µM (inactive) | 19.3 µM (inactive) | > 60.8 µM (inactive) | 22.9 µM (inactive) | > 100 µM (inactive) | 23.1 µM (inactive) | 46.9 µM (inactive) | 18.5 µM (inactive) | 25.9 µM (inactive) | 41.5 µM (inactive) | 30.1 µM (inactive) | > 100 µM (inactive) | 20 µM (inactive) | 32.7 µM (inactive) | – | – | –
COc1ccc(/C=C/[N+](=O)[O-])cc1 | 2.51 µM (inactive) | – | 13.2 µM (inactive) | 6.67 µM (inactive) | 3.57 µM (inactive) | 19.1 µM (inactive) | 3.6 µM (inactive) | 9.75 µM (inactive) | 6.9 µM (inactive) | 16.7 µM (inactive) | – | 2.92 µM (inactive) | 5.81 µM (inactive) | – | 16.3 µM (inactive) | 2.03 µM (inactive) | 3.05 µM (inactive) | 19.4 µM (inactive) | –
CC1CC2CC(=O)CC3(C1)C2CCCN3CCCO (centres undefined) | > 100 µM (inactive) | > 100 µM (inactive) | > 100 µM (inactive) | > 100 µM (inactive) | > 100 µM (inactive) | > 100 µM (inactive) | > 100 µM (inactive) | > 100 µM (inactive) | > 100 µM (inactive) | > 100 µM (inactive) | > 100 µM (inactive) | > 100 µM (inactive) | > 100 µM (inactive) | > 100 µM (inactive) | > 100 µM (inactive) | > 100 µM (inactive) | – | – | –
